Values of other authors as cited in patent publication US6601275B2, “Method and composition for embalming” (United Biotechnologies, L.L.C., priority 2000, dated 2003).

C=O [formaldehyde]
airborne concentration causing irritation of the eyes nose and throat (airborne): above 0.1 ppm | airborne concentration immediately dangerous to life and health (airborne): 100 ppm | carcinogenicity (human): potential human carcinogen
